These results are taken from patent publication US12433861B2, “Compositions and methods for treating reperfusion injury or hemorrhage after recanalization therapy” (GNT Pharma Co., Ltd., priority 2020, dated 2025).

For one series, the system named is healthy volunteers. As to conditions: cited from earlier work.
The test system of series [1] is acute ischemic stroke patients. As to conditions: cited from earlier work.
A further series has as its system ischemic stroke patients. As to conditions: cited from earlier work.
The next series has as its system adult rats. Kind of series: Abnormal behavior in adult rats after single dose. As to conditions: for % of rats showing abnormal behavior: Abnormal body position lying on side / % of rats showing abnormal behavior: Ataxia / % of rats showing abnormal behavior: Clenched paws / % of rats showing abnormal behavior: Decreased activity / % of rats showing abnormal behavior: Increased salivation / % of rats showing abnormal behavior: Repetitive jaw chewing / Number of rats showing abnormal behavior: Abnormal body position lying on side / Number of rats showing abnormal behavior: Ataxia / Number of rats showing abnormal behavior: Clenched paws / Number of rats showing abnormal behavior: Decreased activity / Number of rats showing abnormal behavior: Increased salivation / Number of rats showing abnormal behavior: Repetitive jaw chewing: 8 rats.

Where [2] appears, read: ischemic stroke patients, selfotel (n = 281).

“Also recorded” adds a separate entry of the source.

On to `CCc1cccc(N(C)C(N)=Nc2cccc3ccccc23)c1` [aptiganel], for which, in the series on healthy volunteers (Phase 1, 94 healthy volunteers), the “Drug-induced side effect: Agitation” value is “yes”, the “Drug-induced side effect: Catatonia” value was “yes”, the “Drug-induced side effect: Hallucination” value is recorded as “yes” and the “Drug-induced side effect: Paranoia” value is recorded as “yes”. In the series on healthy volunteers (healthy volunteers (phase 1 study for 94)), the “side effects / psychotic symptoms in healthy humans” value was “caused hallucinations, paranoia, catatonia, euphoria, disinhibition, and psychomotor retardation; also recorded: psychotic symptoms such as hallucinations, paranoia, and catatonia”.
With “rt-PA: recombinant tissue plasminogen activator, intravenous thrombolytic drug”, the “increase of intracranial hemorrhagic complication” value in series [1] (intravenous administration, acute ischemic stroke) is recorded as around 6.4%. The cerebral arterial recanalization in series [1] (intravenous, depending upon size and types of the occluded vessel) was 4-32%.
Regarding `O=C(O)[C@@H]1C[C@H](CP(=O)(O)O)CCN1` (racemic) [selfotel], the “adverse effects in stroke patients” value in the series on ischemic stroke patients (1 mg/kg) was “showed hallucinations, paranoia, agitation, confusion, and delirium”. In addition, in the series on ischemic stroke patients (setting [2]), the “% of subjects showing abnormal behavior: Agitation” value was 36%, the “% of subjects showing abnormal behavior: Confusion” value was 16%, the “% of subjects showing abnormal behavior: Hallucination” value is on record as 21% and the “% of subjects showing abnormal behavior: Stupor” value is listed as 4.3%. Moreover, in the series with ischemic stroke patients (setting [2]), the “Number of subjects showing abnormal behavior: Agitation” value was 101, the “Number of subjects showing abnormal behavior: Confusion” value is 46, the “Number of subjects showing abnormal behavior: Hallucination” value was 59 and the “Number of subjects showing abnormal behavior: Stupor” value is given as 12. In the series on ischemic stroke patients (setting [2]), the “Subjects showing abnormal behavior: Delirium (yes/no)” value is on record as “yes” and the “Subjects showing abnormal behavior: Paranoia (yes/no)” value is given as “yes”. Besides, the psychotic symptoms result in the series on ischemic stroke patients (some of 281 ischemic stroke patients) was “revealed psychotic symptoms such as hallucination, paranoia, and delirium”.
With `C[C@]12N[C@H](Cc3ccccc31)c1ccccc12` [MK-801], in the series on adult rats (1 mg/kg (IP), female), the “% of rats showing abnormal behavior: Abnormal body position lying on side” value is 25%, the “% of rats showing abnormal behavior: Ataxia” value amounted to 75%, the “% of rats showing abnormal behavior: Clenched paws” value is listed as 88% and the “% of rats showing abnormal behavior: Decreased activity” value was 100%. In the series with adult rats (1 mg/kg (IP), female), the “% of rats showing abnormal behavior: Increased salivation” value came to 25%, the “% of rats showing abnormal behavior: Repetitive jaw chewing” value came out at 50%, the “Number of rats showing abnormal behavior: Abnormal body position lying on side” value was found to be 2 and the “Number of rats showing abnormal behavior: Ataxia” value is on record as 6. Also, in the series with adult rats (1 mg/kg (IP), female), the “Number of rats showing abnormal behavior: Clenched paws” value came out at 7, the “Number of rats showing abnormal behavior: Decreased activity” value turned out to be 8, the “Number of rats showing abnormal behavior: Increased salivation” value was 2 and the “Number of rats showing abnormal behavior: Repetitive jaw chewing” value turned out to be 4. Further, in the series with adult rats (10 mg/kg (IP), male), the “% of rats showing abnormal behavior: Abnormal body position lying on side” value is listed as 13%, the “% of rats showing abnormal behavior: Ataxia” value was found to be 38%, the “% of rats showing abnormal behavior: Clenched paws” value stood at 50% and the “% of rats showing abnormal behavior: Decreased activity” value is recorded as 100%. Further, in the series on adult rats (10 mg/kg (IP), male), the “% of rats showing abnormal behavior: Increased salivation” value was 50%, the “% of rats showing abnormal behavior: Repetitive jaw chewing” value is reported as 38%, the “Number of rats showing abnormal behavior: Abnormal body position lying on side” value is on record as 1 and the “Number of rats showing abnormal behavior: Ataxia” value was 3. In addition, in the series with adult rats (10 mg/kg (IP), male), the “Number of rats showing abnormal behavior: Clenched paws” value is listed as 5, the “Number of rats showing abnormal behavior: Decreased activity” value was determined as 4, the “Number of rats showing abnormal behavior: Increased salivation” value is on record as 5 and the “Number of rats showing abnormal behavior: Repetitive jaw chewing” value is recorded as 3. Besides, in the series with adult rats (male and female rats, 1 or 10 mg/kg (IP)), the abnormal behaviors entry was “produced abnormal behaviors including ataxia and decreased activity”.
